Results reported in patent US4670539A, “Peptide growth factors derived from estrogen responsive kidney tissue” (Board of Regents, The University of Texas, priority 1984, dated 1987).

Assays:
MDCK kidney cell line = assay: growth response of MDCK cells; type: cell-based, dog
[1] = tested on: LLCK-PK1 pig kidney cells; assay: growth promoting effects of EGF and/or KDGF on LLCK-PK1 cells; type: cell-based
Source text: (§1) Further exploration of this point was done with the cell line designated NRK (normal rat kidney). When used at a low passage number these cells behave as a normal, non-tumorigenic line, as evidenced by their low rates of colony formation in soft agar. This growth pattern facilitated wide spread use of the NRK cells as bioassay targets for alpha- and beta-transforming growth factors. The bioassay of transforming growth factors by soft agar colony formation was shown by others to require the additon of epidermal growth factor (EGF). At higher passage numbers, these cells progressively increase their capacity to form colonies in soft agar without requiring the presence of growth factor supplements to the usual serum containing medium. Using these properties, we have asked whether low and high passage NRK cells responded to KDGF both with and without added EGF. These experiments were conducted in serum free medium, since the presence of even low concentrations (i.e. 1%, vol/vol) of serum inhibited KDGF action. […] Thus with the relatively non-tumorigenic pheno-type NRK cells, KDGF and EGF were synergistic when cells were in sparse culture. […] In a final experiment, the growth promoting effects of EGF and/or KDGF were compared on LLCK-PK1 pig kidney cells. […] EGF alone was mitogenic for LLCK-PK1 cells, whereas KDGF was not. […]

[2] = tested on: NRK (normal rat kidney) cells; assay: tritium labeled thymidine incorporation of low and high passage NRK cells, with and without EGF; type: cell-based; settings: low passage NRK cells, serum free medium
Source text: as §1

epidermal growth factor [EGF]
growth response (MDCK kidney cell line): responded | mitogenic activity, factor alone [1]: mitogenic | growth (tritium labeled thymidine incorporation), factor alone ([2]; confluent cultures): Neither KDGF alone nor EGF alone promoted growth | mitogenic response, factor alone ([2]; non-confluent cultures): limited mitogenic responses
